In brackets after ≈: the same amount, converted by molar mass. Where a name gives a salt, the structure may show the parent alone.
Tests used:
Helicobacter fells = test: in vivo activity against Helicobacter fells in the mouse (elimination rate); settings: po, 96 h, administered orally at 3×50 mg/kg over the course of 4 days
Experimental: With respect to their in vivo activity against Helicobacter fells in the mouse, the compounds of the formula I were investigated following the methodology described by E. Dick-Hegedus and A. Lee (Scand. J. Gastroenterol. 1991, 26, 909-915). The substances were administered orally at 3×50 mg/kg over the course of 4 days. The elimination rates listed in Table A below resulted here for the compounds investigated: […]

Helicobacter pylori = test: activity against Helicobacter pylori (MIC50), Columbia agar, growth period of 4 days; type: cell-based; settings: 96 h, approx. MIC 50 values, Columbia agar (Oxoid)
Excerpt: The compounds of the formula I were investigated with respect to their activity against Helicobacter pylori following the methodology described by Tomoyuki Iwahi et al. (Antimicrobial Agents and Chemotherapy, 1991, 490-496) using Columbia agar (Oxoid) and with a growth period of 4 days. The approx. MIC 50 values listed in Table A below resulted here for the compounds investigated (the stated numbers of the compounds agree with the example numbers in the description).

SMILES	MIC50 (Helicobacter pylori) [µg/mL]	responders at 50 mg/kg (Helicobacter fells) [%]
CN(CCOc1ccc2ncc([N+](=O)[O-])n2n1)c1ccnc(CSc2nc3ccccc3[nH]2)c1Cl.Cl [Compound 27, [2-(1H-benzimidazol-2-ylsulfanylmethyl)-3-chloropyridin-4-yl]-methyl-[2-(3-nitroimidazo[1,2-b]pyridazin-6-yloxy)-ethyl]amine hydrochloride]	0.1	100
CN(CCSc1ccc2ncc([N+](=O)[O-])n2n1)c1ccnc(CSc2ncccn2)c1Cl [Compound 18]	0.1 (≈ 0.205 µM)	100
Cc1c(SCCCSc2ccc3ncc([N+](=O)[O-])n3n2)ccnc1CO [Compound 1, {3-Methyl-4-[3-(3-nitroimidazo[1,2-b]pyridazin-6-ylsulfanyl)propylsulfanyl]pyridin-2-yl}methanol]	0.05 (≈ 0.128 µM)	100
Cc1c(SCCCSc2ccc3ncc([N+](=O)[O-])n3n2)ccnc1CSc1ncccn1 [Compound 4, 6-{3-[3-Methyl-2-(pyrimidin-2-ylsulfanylmethyl)-pyridin-4-ylsulfanyl]propyisulfanyl)3-nitro-imidazo[1,2-b]pyridazine]	0.1 (≈ 0.206 µM)	100
Cc1ccnc(SCc2nccc(SCCCSc3ccc4ncc([N+](=O)[O-])n4n3)c2C)n1 [Compound 25, 6-{3-[3-Methyl-2-(4-methyl-pyrimidin-2-ylsulfanylmethyl)-pyridin-4-ylsulfanyl]-propylsulfanyl}-3-nitroimidazo[1,2-b]pyridazine]	0.05 (≈ 0.1 µM)	100

More lines, main results first:

MIC50 (Helicobacter pylori) [µg/mL]	SMILES	responders at 50 mg/kg (Helicobacter fells) [%]
0.05 (≈ 0.133 µM)	Cc1c(OCCCSc2ccc3ncc([N+](=O)[O-])n3n2)ccnc1CO [Compound 15, {3-Methyl-4-[3-(3-nitroimidazo[1,2-b]pyridazin-6-ylsulfanyl)propoxy]pyridin-2-yl}-methanol]	100
0.1 (≈ 0.19 µM)	CN(CCSc1ccc2ncc([N+](=O)[O-])n2n1)c1ccnc(CSc2nc3ccccc3[nH]2)c1Cl [Compound 17]	100
0.1	COCCOCCSCc1nccc(SCCCSc2ccc3ncc([N+](=O)[O-])n3n2)c1C [Compound 9, 6-(3-}2-[2-(2-Methoxyethoxy)ethylsulfanylmethyl]-3-methylpyridin-4-ylsulfanyl}-propylsulfanyl)-3-nitroimidazo[1,2-b]pyridazine fumarate]	100
0.5 (≈ 1.39 µM)	Cc1c(OCCCOc2ccc3ncc([N+](=O)[O-])n3n2)cc[n+]([O-])c1C [Compound 13, 6-[3-(2,3-Dimethyl-1-oxypyridin-4-yloxy)propoxy]-3-nitroimidazo[1,2-b]pyridazine]	100
